Source: patent publication US5914242A, “Method for diminishing myocardial infarction using protein phosphatase inhibitors” (priority 1997, dated 1999)
Entries after “also recorded” stand apart in the source; their conditions may differ.

Assays:
Type in all cases: biochemical
[1] = tested on: divalent cation-independent serine/threonine protein phosphatase activity; test: Divalent cation-independent phosphatase activity in dilute whole cell homogenate of rabbit ventricle; conditions: crude whole cell homogenate, [32P]-phosphohistone
Procedure: FIG. 5: Effect of fostriecin on the divalent cation-independent phosphatase activity contained in a dilute, whole cell homogenate of rabbit ventricle. Dilute homogenates of rabbit ventricle biopsies were assayed in the presence of the indicated amount of fostriecin. […] Assays were conducted in a total volume of 80 μl, and the indicated amount of fostriecin was added to the assay 10 minutes prior to initiation of the reaction by the addition of substrate. Each point represents the mean ± SE (n>6).
Determination of protein phosphatase activity: Protein phosphatase activity against phosphohistone was determined by the quantification of liberated [^32 P] from phosphohistone according to previously established methods (see Honkanen et al., J. Biol. Chem. 265:19401-04 (1990); Honkanen et al., Mol. Pharmacol. 40:577-83 (1991); and Critz and Honkanen, Neuroprotocols 6:78-83 (1995)). Assays (80 μl final volume) were conducted in 50 mM Tris-buffer (pH 7.4) containing 0.5 mM DTT, 4 mM EDTA, and phosphoprotein (2 μM PO4). […] [^32 P]Phosphate liberated by the enzyme was then extracted as a phosphomolybdate complex and measured according to the methods of Killilea et al., Arch. […] Aliquots of the upper phase (100 μl) were removed for counting, and radioactivity was quantified with a scintillation counter. […]

[2] = tested on: PP2B; test: Effect on PP2B
[3] = tested on: a variety of protein kinases; test: Effect on protein kinases
[4] = tested on: protein phosphatase type 1 (PP1); test: Protein phosphatase inhibition assay, purified catalytic subunit, [32P]-phosphohistone or phosphorylase a substrate
Procedure: FIG. 4: Effect of fostriecin on the activity of protein phosphatase type 1 (PP1) and protein phosphatase type 2A (PP2A). The activity of the purified catalytic subunits of PP1 (Δ,s) or PP2A (O,1) was assayed in the presence of the indicated amount of fostriecin. The inhibition assays employed freshly prepared [^32 P]-phosphohistone (open symbols) or [^32 P]phosphorylase A (filled symbols) as substrate and highly purified catalytic subunits of PP1 or PP2A. Assays were conducted in a total volume of 80 μl, and the indicated amount of fostriecin was added to the assay 10 minutes prior to initiation of the reaction by the addition of substrate. Each point represents the mean ± SE (n>6).
Determination of protein phosphatase activity: Protein phosphatase activity against phosphohistone was determined by the quantification of liberated [^32 P] from phosphohistone according to previously established methods (see Honkanen et al., J. Biol. Chem. 265:19401-04 (1990); Honkanen et al., Mol. Pharmacol. 40:577-83 (1991); and Critz and Honkanen, Neuroprotocols 6:78-83 (1995)). Assays (80 μl final volume) were conducted in 50 mM Tris-buffer (pH 7.4) containing 0.5 mM DTT, 4 mM EDTA, and phosphoprotein (2 μM PO4). The assay was initiated by the addition of substrate (30 μl) to a 1.5 ml microfuge tube containing 50 μl of dilute homogenate. Assays were conducted at 30° C. for 10 minutes and were stopped by the addition of 100 μl of 1N H2 SO4 containing 1 mM K2 HPO4. [^32 P]Phosphate liberated by the enzyme was then extracted as a phosphomolybdate complex and measured according to the methods of Killilea et al., Arch. Biochem. Biophys. 191:638-46 (1978)). Briefly, free phosphate was extracted by adding 20 μl of ammonium molybdate (7.5% w/v in 1.4 N H2 SO4) and 250 μl of isobutanol:benzine (1:1, v/v) to each tube. The tubes were mixed vigorously for approximately 10 seconds followed by centrifugation at 14,000×g for 2 minutes. Aliquots of the upper phase (100 μl) were removed for counting, and radioactivity was quantified with a scintillation counter.
For inhibition studies, the indicated amount of fostriecin or okadaic acid was added to the enzyme mixture 10 minutes before the reaction was initiated with the addition of substrate. Controls received solvent alone, and in all experiments the amount of enzyme was diluted to ensure that the samples were below the titration endpoint. The titration endpoint is defined as the concentration of enzyme after which further dilution no longer affects the IC50 of the toxin, and represents a point where the concentration of enzyme used in the assay no longer approaches that of the toxin. This ensures that IC50 represents the potency of the inhibitor alone and is not representative of a combination of potency of the toxin and titration artifacts of the assay system. Preliminary assays were also performed to ensure the dephosphorylation reaction was linear with respect to enzyme concentration and time.
The catalytic subunit of PP2A was purified to apparent homogeneity according to established methods as described by Pallas et al., Cell 60:167-176 (1990) using G-75 Sephadex in the place of Ultrogel-AcA44 as previously reported in Brautigan et al., J. Biol. Chem. 260:4295-02 and Honkanen et al., Mol. Pharmacol 40:577-83 (1991). PP1 and PP2A both are now also available from several commercial sources.

Question: Which “inhibition of phosphatase activity in rabbit heart ventricle homogenate” value [1] does the source give for `CC(O)(/C=C/C1CC=CC(=O)O1)C(CC(O)\C=C/C=C\C=C\CO)OP(=O)(O)O` (centres unmarked) [fostriecin] here?
Answer: inhibits

Question: What about the “effect on PP2B” value [2] of the same molecule?
Answer: no effect

Question: And the “effect on a variety of protein kinases” value [3]?
Answer: no effect

Question: What about the “effect on PP1 at the protective concentration” value ([4]; 1-10 μM fostriecin) of the same molecule?
Answer: no direct effect; also recorded: minor effect

Question: What about the “inhibition of PP1 catalytic subunit” value ([4]; phosphohistone and phosphorylase-a substrates) of the same molecule?
Answer: inhibited by fostriecin in a dose-dependent manner
